Consider four molecules from article PMC12108296, “Physicochemical Characterization of Kynurenine Pathway Metabolites” (Antioxidants, 2025).

Structures are written as SMILES. “And” between values parts separate entries of the source, which are not always exact repeats. Equal values may be shown once. Read-outs that look alike come from different tables or passages of the source. A value given as a limit tells only on which side of the number the result lay.

For data set [1] the following is noted: cited from earlier work; for pKa (first value) / pKa (second value): no mention of experimental methods.
Data set [2] in a line: pH-potentiometric titration (pKa). The format is physicochemical. The procedure: An ECO automatic titrator (Metrohm AG, Herisau, Switzerland) with a Metrohm 6.0234.110 combined pH glass electrode was used for the potentiometric titrations under automatic PC control. The electrode was calibrated with aqueous standard buffer solutions. Constant temperature (298.15 ± 0.1 K) was provided by a thermostated double-walled glass cell. Difference titrations were carried out in the absence (blank) and presence of the titrand. First, 2 mL of 0.1 mol/L HCl solutions were titrated with 0.1 mol/L KOH. A constant ionic strength of 0.15 mol/L was provided by the presence of KCl. Next, a titrand was added to the same volume of HCl solution and subsequently titrated with KOH. The initial concentration of the titrand was around between 3 and 6 mmol/L in the titrations. Non-linear parameter fitting provided the dissociation constants from the interpolated volume differences. Potentiometric titrations were performed in triplicates, and the resulting pKa values are reported with ± standard error of the three fitted values.

A short description of data set [3]: 1H NMR-pH titration (macroscopic and microscopic pKa). Conditions: for pKa: H2O/D2O 95:5 (v/v); for predominant protonation/charge form at physiological pH: physiological pH (7.4), from the determined acid-base constants; for pKaC^A (NMR): second step dissociation microconstant of the aromatic ammonium group; for pKaA^C (NMR): second step dissociation microconstant of the carboxyl group. It counts as physicochemical. The procedure: NMR spectra were recorded on a 400 MHz Varian Mercury Plus spectrometer equipped with a 5 mm Varian 400 Automation Triple Resonance Broadband Pulsed Field Gradient probe at 298.15 ± 0.1 K. The solvent was H2O/D2O 95:5 (v/v), the solution contained around 5 mmol/L titrand, and the ionic strength was adjusted to 0.15 mol/L. The pH values were adjusted with 2–5 mol/L HCl or NaOH (in order to avoid substantial dilution of the solution) and determined in situ by internal indicator molecules optimized for ^1H NMR [27, 28]. The sample volume was 500 μL containing DSS (3-(trimethylsilyl)propane-1-sulfonate) as a chemical shift reference. The H2O ^1H signal was suppressed with a WET sequence; the average acquisition parameters for ^1H measurements are number of transients = 8, number of points = 65,536, acquisition time = 3.33 s, and relaxation delay = 1.5 s. All spectra were processed using the MestReNova v9.0.1-13254 (Mestralab Research, S.L., Santiago de Compostela, Spain) software. NMR-pH titrations were performed once, and resulting pKa values are reported with ± standard error of the model fit.
The corollary of this assumption is not so obvious, however: the aliphatic ^1H NMR signals are relatively close to the aromatic amino group (in terms of covalent distance), especially the methylene group (5 covalent distance), therefore selectivity of aliphatic ^1H NMR signals in favor of aliphatic ammonium and carboxyl dissociation is dubious. This, however, can be exploited: the titration curve of the methylene group thus affords all three macroconstants, including Ka1, Ka2 in the acidic region (Equation (1)), while the aromatic and αCH ^1H NMR signals selectively afford the microconstants KaC^A (second step dissociation microconstant of the aromatic ammonium group), KaA^C (second step dissociation microconstant of the carboxyl group) (Equation (2)). […] Note that Equation (2) in its current form applies to the titration curves of the aromatic signals; for the αCH signal, Equation (2) is rewritten with KaC^A and KaA^C exchanged. For the curve fitting of Equation (2), the macroconstants are treated as fixed parameters transferred from the fitting of Equation (1).(1) δobs=δL+δHL·Ka2·10^−pH+δH2L·Ka1·Ka2·10^−2·pH/1+Ka2·10^−pH+Ka1·Ka2·10^−2·pH (2) δobs=δL·1+KaCA·10^−pH+δHL·KaAC·10^−pH+Ka1·Ka2·10^−2·pH/1+Ka2·10^−pH+Ka1·Ka2·10^−2·pH
The remaining dissociation microconstants (Ka^C and Ka^A) were calculated using Equation (3). Modern theoretical considerations of acid-base microconstant determination can be found in the works of Noszál and Borkovec, while some examples can be found in recent works.(3) pKa1+pKa2=pKaA+pKaAC=pKaC+pKaCA
The titration of 3-hydroxykynurenine (Figure 5) was treated the same way as for kynurenine, with the difference that 3-hydroxykynurenine has an overlapping dissociation in the basic pH region as well (the primary aliphatic ammonium dissociation overlaps with the dissociation of the phenol group). The same principle can be applied to the macro- and microconstant determination of kynurenine; only the last two macroconstants were transferred from potentiometric titration data since the latter is more precise than NMR-pH determined values and the chemical shift response of the methylene group towards the phenol dissociation (6 covalent distance) is not expected to be reliable. Otherwise, the microconstants of the basic pH range (KaACN^O—phenol group, KaACO^N—primary aliphatic ammonium group) were determined by fitting an analog (featuring Ka3 and Ka4) of Equation (2) to the titration data of all ^1H NMR signals. Note that the fitted pKaACN^O falls very close to the calculated pKaAC^N; therefore, to ensure a decreasing sequence of Ka values in every microscopic protonation pathway, an additional constraint was used during fitting: pKaACN^O be greater than the mean of pKa3 and pKa4. […]

The next data set can be described thus: UV-pH titration (pKa). The format is physicochemical. Particulars: for pKa: aqueous HCl/NaOH solutions of varying pH. The protocol: UV spectroscopic measurements were carried out on a Jasco V-550 diode-array spectrometer (Jasco Ltd., Tokyo, Japan) with 10 mm quartz cuvettes at 298 K. The titrand was diluted with an acidic (HCl) and a basic (NaOH) stock solution to the same analyte concentration (adjusting ionic strength to 0.15 mol/L). In the case of kynurenic acid, a saturated acidic solution was diluted 10 times with HCl and NaOH, respectively, to obtain the stock solutions. Sample solutions with varying pH were prepared by mixing the two stock solutions in varying ratios. pH values were read on a Metrohm 2.780.0010 precision pH meter with a 6.0258.600 Unitrode glass Pt 1000 electrode (Metrohm AG, Herisau, Switzerland), and the pH-potentiometric system was calibrated using standard buffer solutions.

The subject of a further data set is ROS. Set-up: method as in PMID 21763768. Conditions: cited from earlier work.
Data set [4] can be described thus: in vitro parallel permeability assay (PAMPA). Conditions: passive transport only. The format is in vitro ADME. The procedure:
To further obtain additional information regarding the microspeciation scheme, the synthesis of methyl ester derivatives was attempted since these model compounds could provide the value of microconstants for cases where the carboxylic acid group is undissociated. […] In the first attempt, the compounds were each dissolved with 1-ethyl-3-(3-dimethylaminopropyl)carbodiimide (EDAC) and triethylamine in dichloromethane, and after fifteen minutes, methanol was added to the mixture, which was stirred overnight at room temperature. After this, the solution was washed with saturated sodium bicarbonate solution and distilled water. The organic phase was dried over sodium sulfate and then removed from the rotary evaporator. In the second attempt, the compounds were each dissolved in methanol, and the solution was cooled to 0 °C. Thionyl chloride was added dropwise, and the mixture was stirred at the same temperature for four hours. Then, the solvent was removed from the rotary evaporator, yielding an oily residue. […] The measurement of lipophilicity and membrane penetration of kynurenine and 3-hydroxykynurenine was also attempted; however, due to the extremely low predicted logP value of these compounds, it was not unexpected that obtaining such experimental data would not be feasible. […]
(In PAMPA a lipid-coated filter parts donor from acceptor wells.)

Where [5] appears, read: aqueous HCl solution with KCl, titrated with KOH, unreliable, since two values could not be fitted, read-out: single pKa fitted in the acidic pH region (pH potentiometry titration).
The mark [6] stands for this setting: first step microconstant of the aromatic ammonium group, calculated using Equation (3), read-out: pKa^A.
Where [7] appears, read: first step microconstant of the carboxyl group, calculated using Equation (3), read-out: pKa^C.
The mark [8] stands for this setting: macroconstant from methylene signal, 298.15 K, ionic strength 0.15 mol/L, read-out: pKa1 (NMR).
Where [9] appears, read: macroconstant from methylene signal, 298.15 K, ionic strength 0.15 mol/L, read-out: pKa2 (NMR).

As for `O=C(O)c1ccccn1` [picolinic acid], the “pKa (first value)” value in data set [1] (ref 25) is reported as 1.0; in data set [1] (ref 26) it was 1.07. In addition, the “pKa (second value)” value in data set [1] (ref 25) is 5.4; in data set [1] (ref 26), 5.25. The pKa is 5.22 ± 0.01 in data set [2] (aqueous HCl solution with KCl, titrated with KOH, triplicate, ± standard error, 298.15 K, ionic strength 0.15 mol/L, read-out: pKa2 (potentiometry)); ~0.63 in data set [2] (aqueous HCl solution with KCl, titrated with KOH, extreme acidic pKa of the carboxyl group, rough estimate, single nonlinear curve fit, 298.15 K, ionic strength 0.15 mol/L, read-out: pKa1 (by extrapolation of potentiometry)); ~5.2 in data set [2] (aqueous solution, ionic strength 0.15 mol/L, both titration techniques, 298.15 K, ionic strength 0.15 mol/L, read-out: pKa2 (mean of potentiometry and NMR)); 5.19 ± 0.02 in data set [3] (± standard error of fit, 298.15 K, ionic strength 0.15 mol/L, H2O/D2O 95:5, read-out: pKa (NMR-pH titration)). Further, the “pKa2 (mean of potentiometry and NMR)” value in data set [2] (both titration techniques, 298.15 K, ionic strength 0.15 mol/L) is reported as 5.21. Further, the “pKa1 (by extrapolation of potentiometry)” value in data set [2] (extreme acidic pKa of the carboxyl group, rough estimate, single nonlinear curve fit, 298.15 K, ionic strength 0.15 mol/L) is ~0.6. The “pH of a further dissociation step indicated by shift of NMR signals” value in data set [3] (slight systematic shift below pH 1.5, outside the range of determination) is listed as < 1.

For `O=C(O)c1cc(=O)c2ccccc2[nH]1` [kynurenic acid], in data set [1] (radical form), the “pKa of the radical form” value is recorded as 5.5. Also, the pKa in data set [2] (aqueous HCl solution with KCl, titrated with KOH, value is unreliable due to precipitate formation, read-out: pKa fitted (pH potentiometry titration)) is 3.1 ± 0.1; in “UV-pH titration (pKa)” (10-fold diluted saturated solution, 298 K, ionic strength 0.15 mol/L, read-out: pKa (UV-pH titration, full spectrum measurement)), 2.44 ± 0.02; in “UV-pH titration (pKa)” (single dissociation step, UV-pH titration, 298 K, ionic strength 0.15 mol/L, read-out: pKa1 (UV)), ~2.4. Also, in data set [2] (below pH 3, no issue above pH 3), the “solubility behaviour during titration” value is on record as “precipitation”. In addition, the “pKa1 (UV)” value in the data set “UV-pH titration (pKa)” (single dissociation step, UV-pH titration, 298 K, ionic strength 0.15 mol/L) was 2.43. The “dissociation step above pH 7 until 13” value in data set [3] (potentiometric and NMR-pH titration attempts) is listed as “no dissociation step”. Moreover, the “concentration that can abolish iron(II) sulfate-induced ROS production” value in the data set on ROS is given as “exceeding 100 µM”.

For `Nc1c(O)cccc1C(=O)CC(N)C(=O)O` (stereo not shown) [3-hydroxykynurenine], the pKa was 8.65 in data set [2] (aqueous HCl solution with KCl, titrated with KOH, macroconstant, 298.15 K, ionic strength 0.15 mol/L, read-out: pKa3 (potentiometry)); 9.55 in data set [2] (aqueous HCl solution with KCl, titrated with KOH, macroconstant, 298.15 K, ionic strength 0.15 mol/L, read-out: pKa4 (potentiometry)); 2.53 ± 0.03 in data set [2] (setting [5]); 1.82 in data set [3] (setting [6]); 1.91 in data set [3] (setting [7]); 1.56 in data set [3] (setting [8]). Besides, the pKa in data set [3] (setting [9]) stood at 2.69. Besides, in data set [3] (microconstant of the aliphatic ammonium group, phenol still protonated, calculated), the “pKaAC^N” value is on record as 9.08. For the same molecule, the “pKaAC^O” value in data set [3] (microconstant of the phenol group, aliphatic ammonium still protonated, calculated) is listed as 8.85. Moreover, the “pKaACN^O (NMR)” value in data set [3] (microconstant of the phenol group, basic pH range, fit constrained to exceed mean of pKa3 and pKa4) is recorded as 9.12. Further, the “pKaACO^N (NMR)” value in data set [3] (microconstant of the primary aliphatic ammonium group, basic pH range) is 9.35. The “predominant protonation/charge form at physiological pH” value in data set [3] is “zwitterionic form”. For the same molecule, the “pKaC^A (NMR)” value in data set [3] was determined as 2.34. The “pKaA^C (NMR)” value in data set [3] was 2.43.

Take `Nc1ccccc1C(=O)C[C@H](N)C(=O)O` [kynurenine]: the pKa in data set [2] (aqueous HCl solution with KCl, titrated with KOH, 298.15 K, ionic strength 0.15 mol/L, read-out: pKa fitted in the basic pH region (pH potentiometry titration)) is 9.13 ± 0.02; in data set [2] (setting [5]), 2.39 ± 0.04; in data set [3] (setting [6]) it was 1.39; in data set [3] (setting [7]) it was 1.63; in data set [3] (setting [8]) it was 1.19; in data set [3] (setting [9]), 2.49. In addition, in data set [3] (macroconstant, aliphatic ammonium, 298.15 K, ionic strength 0.15 mol/L, read-out: pKa3 (NMR)), the pKa was determined as 9.33. Further, the “pKaC^A (UV-pH titration)” value in the data set “UV-pH titration (pKa)” (second step dissociation microconstant of the aromatic ammonium group) is recorded as 2.08 ± 0.2. In addition, the “pKaA^C (UV-pH titration)” value in “UV-pH titration (pKa)” (second step dissociation microconstant of the carboxyl group) was found to be 2.33 ± 0.05. Moreover, the “predominant protonation/charge form at physiological pH” value in data set [3] was “zwitterionic form”. The “pKaC^A (NMR)” value in data set [3] is 2.05 ± 0.04 and 2.05. Further, the “pKaA^C (NMR)” value in data set [3] was 2.29 ± 0.03 and 2.29. In addition, the “membrane penetration/retention (PAMPA)” value in data set [4] is “no detectable membrane penetration/retention”.
